Measured values as given in patent US8183371B2, “Pyrazines as delta opioid receptor modulators” (Janssen Pharmaceutica NV, priority 2009, dated 2012).
Read-outs that look alike come from different tables or passages of the source.

What was measured:
[1] = molecular target: T1, delta opioid receptor (Rattus norvegicus, UniProt P33533); test: Rat brain delta opioid receptor binding assay
T1 construct: from tissue; host or cells: forebrain of male Wistar rats
Procedure: Procedure: Male, Wistar rats (150-250 g, VAF, Charles River, Kingston, N.Y.) were killed by CO2, and their brains were removed and placed immediately in ice cold Tris HCl buffer (50 mM, pH 7.4). The forebrains were separated from the remainder of the brain by a coronal transection, beginning dorsally at the colliculi and passing ventrally through the midbrain-pontine junction. After dissection, the forebrains were homogenized in Tris buffer in a Teflon®-glass homogenizer. The homogenate was diluted to a concentration of 1 g of forebrain tissue per 80 mL Tris and centrifuged at 39,000×g for 10 min. The pellet was resuspended in the same volume of Tris buffer containing 5 mM MgCl2 with several brief pulses from a Polytron homogenizer. This particulate preparation was used for the delta opioid binding assays. Following incubation with the delta selective peptide ligand ˜4 nM [^3H]DPDPE or 0.25 nM [^3H]naltrindole at 25° C. for 2.5 h in a 96-well plate with total volume of 1 mL, the plate contents were filtered through Wallac filtermat B sheets on a Tomtec 96-well harvester. The filters were rinsed three times with 2 mL of 10 mM HEPES (pH 7.4), and dried in a 650 W microwave oven for 1.75 min twice. To each sample area 2×50 μL of Betaplate Scint scintillation fluid (LKB) was added and the radioactivity was quantified on a LKB (Wallac) 1205 BetaPlate liquid scintillation counter.
Analysis: The data from the scintillation counter were used to calculate either the % inhibition compared to control binding (when only a single concentration of test compound was evaluated) or a Ki value (when a range of concentrations was tested). Percent inhibition was calculated as: [(total dpm−test compound dpm)/(total dpm−nonspecific dpm)]*100. Kd and Ki values were calculated using GraphPad PRISM data analysis program.

[2] = molecular target: T2, δ-opioid receptor (Mus musculus, UniProt P32300); test: [35S]GTPγS binding assay in NG108-15 cell membranes (delta opioid functional assay); assay type: biochemical; conditions: for GTPγS δ-RelEfficacy @200 nM: 200 nM compound, relative to calculated max of SNC80 dose response
T2 construct: NG108-15 cell membranes were purchased from Applied Cell Sciences (Rockville, Md.); host or cells: NG108-15 cell membranes (purchased)
T2 sequence (P32300 whole entry): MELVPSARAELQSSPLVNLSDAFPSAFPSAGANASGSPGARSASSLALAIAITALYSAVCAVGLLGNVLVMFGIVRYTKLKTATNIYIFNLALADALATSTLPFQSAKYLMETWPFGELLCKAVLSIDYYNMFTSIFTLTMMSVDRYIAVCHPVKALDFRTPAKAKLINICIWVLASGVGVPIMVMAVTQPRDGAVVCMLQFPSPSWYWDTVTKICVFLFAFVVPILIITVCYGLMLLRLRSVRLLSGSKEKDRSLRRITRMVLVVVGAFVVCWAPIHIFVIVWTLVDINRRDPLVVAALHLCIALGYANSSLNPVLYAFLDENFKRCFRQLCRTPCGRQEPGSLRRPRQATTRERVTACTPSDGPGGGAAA
Procedure: Methods: NG108-15 cell membranes were purchased from Applied Cell Sciences (Rockville, Md.). 5 mg/mL of membrane protein was suspended in 10 mM TRIS-HCl pH 7.2, 2 mM EDTA, 10% sucrose. Membranes were maintained at 4-8° C. A 1 mL volume of membranes was added into 10 mL cold binding assay buffer. The assay buffer contained 50 mM Tris, pH 7.6, 5 mM MgCl2, 100 mM NaCl, 1 mM DTT and 1 mM EGTA. The membrane suspension was homogenized twice with a Polytron, and centrifuged at 3000 rpm for 10 min. The supernatant was then centrifuged at 18,000 rpm for 20 min. Ten mL of assay buffer was added into the pellet containing tube. The pellet and buffer were mixed with a Polytron.
Incubation procedure: The pellet membranes (75 μg/mL) were preincubated with SPA beads (10 mg/mL) at 25° C. for 45 min in the assay buffer. The SPA beads (5 mg/mL) coupled with membranes (37.5 μg/mL) were then incubated with 0.1 nM [^35S]GTPγS in the same Tris buffer containing 100 μM GDP in total volume of 200 μL. 200 nM of receptor agonists was used to stimulate [^35S]-GTPγS binding. The basal binding was tested in the absence of agonists and non-specific binding was tested in the presence of 10 μM unlabeled GTPγS.
Data % of Basal=(stimulated−non specific)*100/(basal−non specific). Relative Efficacy of a compound at 200 nM=(% of Basal of test compound at 200 nM)/(Calculated Max of SNC80 dose response. Curve in prism).

[3] = [3H]naltrindole ligand, read-out: δ-binding (Naltrindole ligand) Ki
[4] = read-out: GTPγS δ-opioid receptor EC50
[5] = rat forebrain membranes, ~4 nM [3H]DPDPE, read-out: δ-binding (DPDPE ligand) Ki

T1 sequence (P33533 whole entry): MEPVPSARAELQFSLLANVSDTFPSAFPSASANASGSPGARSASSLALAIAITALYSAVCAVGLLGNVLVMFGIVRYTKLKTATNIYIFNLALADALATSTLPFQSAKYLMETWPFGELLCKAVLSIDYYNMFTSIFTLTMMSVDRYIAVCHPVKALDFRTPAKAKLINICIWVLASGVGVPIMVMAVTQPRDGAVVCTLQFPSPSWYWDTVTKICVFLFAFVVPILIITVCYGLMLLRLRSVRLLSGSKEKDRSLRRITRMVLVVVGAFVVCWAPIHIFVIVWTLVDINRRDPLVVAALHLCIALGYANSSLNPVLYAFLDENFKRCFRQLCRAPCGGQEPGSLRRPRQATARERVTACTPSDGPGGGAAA

Structure (SMILES)	Ki [1, 3] [nM]	GTPγS δ-opioid receptor Rel Efficacy [2]	GTPγS δ-RelEfficacy @200 nM [2]	EC50 [2, 4] [nM]	Ki [1, 5] [nM]	Ki [1] [nM]	EC50 [2] [nM]
c1ncc(-c2cnc(NC[C@@H]3CCCN3)c(Oc3ccc4c(c3)CCO4)n2)cn1 [Cpd 33]	4.3	–	–	–	–	–	–
N#Cc1cncc(-c2cnc(NC[C@@H]3CCCN3)c(Oc3cccc(Cl)c3)n2)c1 [Cpd 42]	–	1.1894	0.7111	84.4	–	–	–
Clc1cccc(Oc2nc(-c3cncnc3)cnc2NC[C@@H]2CCCN2)c1 [Cpd 11]	1.8	–	0.2102	–	–	–	–
N#CCc1ccc(Oc2nc(-c3cncc(C#N)c3)cnc2NC[C@@H]2CCCN2)cc1 [Cpd 27]	6.4	1.0035	0.9179	34.2	–	–	–
N#Cc1cncc(-c2cnc(NC[C@@H]3CCCN3)c(Oc3cccc(O)c3)n2)c1 [Cpd 38, 5-{6-(3-Hydroxy-phenoxy)-5-[(pyrrolidin-2-(S)-ylmethyl)-amino]-pyrazin-2-yl}-nicotinonitrile]	0.086	1.1104	0.6472	66.6	–	–	–
COc1ccc(Oc2nc(-c3cncnc3)cnc2NCC2(N)CCCC2)cc1 [Cpd 22]	2.9	–	0.2384	–	–	–	–
CCc1ccc(Oc2nc(-c3cncc(C#N)c3)cnc2NC[C@@H]2CCCN2)cc1 [Cpd 37]	0.5	–	0.3353	–	–	–	–
Oc1cccc(Oc2nc(-c3cncnc3)cnc2NC[C@@H]2CCCN2)c1 [Cpd 15, 3-{6-Pyrimidin-5-yl-3-[(pyrrolidin-2-(S)-ylmethyl)-amino]-pyrazin-2-yloxy}-phenol]	0.4	–	–	–	–	–	–
Clc1ccccc1Oc1nc(-c2cncnc2)cnc1NC[C@@H]1CCCN1 [Cpd 12, [3-(2-Chloro-phenoxy)-5-pyrimidin-5-yl-pyrazin-2-yl]-pyrrolidin-2-(S)-ylmethyl-amine]	0.7	–	0.2356	–	–	–	–
COc1ccc(Oc2nc(-c3cncc(C#N)c3)cnc2NC[C@@H]2CCCN2)cc1F [Cpd 25]	0.2	1.0387	0.9130	31.3	–	–	–
N#Cc1cncc(-c2cnc(NC[C@@H]3CCCN3)c(Oc3ccc4occc4c3)n2)c1 [Cpd 39]	0.2	1.0736	1.0765	4.6	–	–	–
c1ncc(-c2cnc(NC[C@@H]3CCCN3)c(Oc3ccc4c(c3)OCO4)n2)cn1 [Cpd 7]	–	–	–	–	491	–	–
N#Cc1ccc(Oc2nc(-c3cncnc3)cnc2NC[C@@H]2CCCN2)cc1 [Cpd 18]	76.4	–	0.1065	–	–	–	–
CCc1ccc(Oc2nc(-c3cncnc3)cnc2NC[C@@H]2CCCN2)cc1 [Cpd 6]	–	1.1553	–	460	32.3	–	–
N#Cc1cncc(-c2cnc(NC[C@@H]3CCCN3)c(Oc3ccc4[nH]ccc4c3)n2)c1 [Cpd 40]	–	1.1190	0.6606	39.3	–	–	–
Clc1ccc(Oc2nc(-c3cncnc3)cnc2NC[C@@H]2CCCN2)cc1 [Cpd 10]	1.1	–	0.2150	–	–	–	–
N#Cc1cncc(-c2cnc(NC[C@@H]3CCCN3)c(Oc3ccccc3Cl)n2)c1 [Cpd 41]	–	1.2922	0.3049	298	–	–	–

Structure (SMILES)	Ki [1, 3] [nM]	GTPγS δ-opioid receptor Rel Efficacy [2]	GTPγS δ-RelEfficacy @200 nM [2]	EC50 [2, 4] [nM]	Ki [1, 5] [nM]	Ki [1] [nM]	EC50 [2] [nM]
COc1ccc(Oc2nc(-c3cncc(C#N)c3)cnc2NCC2(N)CCCC2)cc1 [Cpd 21]	0.6	–	0.2481	–	–	–	–
CC(=O)Nc1cccc(Oc2nc(-c3cncnc3)cnc2NC[C@@H]2CCCN2)c1 [Cpd 13]	4	–	0.0800	–	–	–	–
COc1ccc(Oc2nc(-c3cncc(C#N)c3)cnc2NC[C@H](C)N)cc1 [Cpd 19]	0.3	–	–	–	–	–	–
N#Cc1cncc(-c2cnc(NC[C@@H]3CCCN3)c(Oc3ccc(OC(F)F)cc3)n2)c1 [Cpd 29]	0.3	–	0.0000	–	–	–	–
COc1ccc(Oc2nc(-c3cncc(C#N)c3)cnc2N2CCNCC2)cc1 [Cpd 30, 5-[3′-(4-Methoxy-phenoxy)-3,4,5,6-tetrahydro-2H-[1,2′]bipyrazinyl-5′-yl]-nicotinonitrile]	0.1	1.1345	0.5999	111	–	–	–
COc1ccc(Oc2nc(-c3cncnc3)cnc2NC[C@@H]2CCCN2)cc1 [Cpd 5]	–	1.0984	–	349	2.7	–	–
COc1ccc(Cc2nc(-c3cncc(C#N)c3)cnc2NC[C@@H]2CCCN2)cc1 [Cpd 23]	2.4	–	0.1174	–	–	–	–
Cc1ccc(Oc2nc(-c3cncc(C#N)c3)cnc2NC[C@@H]2CCCN2)cn1 [Cpd 28]	13.2	–	0.1492	–	–	–	–
COc1ccc(Oc2nc(-c3cncc(C#N)c3)cnc2N[C@H]2CC[C@H](N)CC2)cc1 [Cpd 34]	–	–	–	–	–	0.7	–
c1cn(-c2ccc(Oc3nc(-c4cncnc4)cnc3NC[C@@H]3CCCN3)cc2)cn1 [Cpd 14]	411	–	–	–	–	–	–
COc1ccc(Oc2nc(-c3cncnc3)cnc2NC[C@@H]2CCCN2)c(F)c1 [Cpd 9]	–	1.1022	–	281	1.2	–	–
COc1ccc(Oc2nc(-c3cncc(C#N)c3)cnc2NC[C@@H]2CCCN2)c(F)c1 [Cpd 26]	0.2	1.0534	1.0180	27.1	–	–	–
COc1ccc(Oc2nc(-c3cncc(C#N)c3)cnc2N[C@H]2CC[C@@H](N)CC2)cc1 [Cpd 35]	–	1.2053	0.4157	–	–	0.4	95.2
COc1ccc(Oc2nc(-c3cccnc3)cnc2N2CCNCC2)cc1 [Cpd 31]	0.3	1.0012	0.7579	8.1	–	–	–
N#Cc1cncc(-c2cnc(NC[C@@H]3CCCN3)c(Oc3ccc(OC(F)(F)F)cc3)n2)c1 [Cpd 36]	1.4	0.9719	0.5598	29.7	–	–	–
COc1ccc(Oc2nc(-c3cncnc3)cnc2NC[C@H](C)N)cc1 [Cpd 20]	0.6	1.0287	0.6890	50.5	–	–	–
COc1ccc(Cc2nc(-c3cccnc3)cnc2NC[C@@H]2CCCN2)cc1 [Cpd 16]	15	0.3985	–	7320	–	–	–
